These are literature values, as cited in paper PMC4691889 (Genes & Development, 2015).

This series relates to NTMT1. To be noted: inhibition of NTMT1, determined in previous studies; ref Richardson et al. 2015.

The structures appear in SMILES notation.

Consider `Nc1ncnc2c1ncn2[C@@H]1O[C@H](CSCC[C@H](N)C(=O)O)[C@@H](O)[C@H]1O` [SAH, S-adenosyl-L-homocysteine], for which the IC50 (as a rule, the concentration needed to halve the response being measured) was 3.3 µM.
